Measurements published in ChEMBL document CHEMBL1201862, “PubChem BioAssay data set” (2004).
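Assay format: 96-well plates, 48-hour exposure. At the GI50, growth is halved.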 Calls of active or inactive are those of the source. No stated cut-off is given here; in the data, active = GI50 up to about 1.1 µM and inactive = higher.

Assays:
Experiment in all cases: growth of human tumour cells (NCI), 48 h
HCC 2998 = tested on: HCC 2998
SK-MEL-5 = tested on: SK-MEL-5
UO-31 = tested on: UO-31
K562 = tested on: K562
IGROV-1 = tested on: IGROV-1
NCI-H460 = tested on: NCI-H460
Hs-578T = tested on: Hs-578T
NCI-H522 = tested on: NCI-H522
RPMI-8226 = tested on: RPMI-8226
NCI/ADR-RES = tested on: NCI/ADR-RES
KM12 = tested on: KM12
SW-620 = tested on: SW-620
A498 = tested on: A498
OVCAR-4 = tested on: OVCAR-4
UACC-62 = tested on: UACC-62
HCT-15 = tested on: HCT-15
SF-295 = tested on: SF-295
CAKI-1 = tested on: CAKI-1
SF-539 = tested on: SF-539
HOP-92 = tested on: HOP-92

C=CCNC(=S)N/N=C1\C(=O)N(CN2CCOCC2)c2ccc([N+](=O)[O-])cc21
GI50 (HCC 2998): 12.9 µM (inactive) | GI50 (SK-MEL-5): 9.73 µM (inactive) | GI50 (UO-31): 6.18 µM (inactive) | GI50 (K562): 18.9 µM (inactive) | GI50 (IGROV-1): 6.21 µM (inactive) | GI50 (NCI-H460): 4.16 µM (inactive) | GI50 (Hs-578T): > 100 µM (inactive) | GI50 (NCI-H522): 41.4 µM (inactive) | GI50 (RPMI-8226): 33 µM (inactive) | GI50 (NCI/ADR-RES): 3.74 µM (inactive) | GI50 (KM12): 28.3 µM (inactive) | GI50 (SW-620): 61.5 µM (inactive) | GI50 (A498): 7.52 µM (inactive) | GI50 (OVCAR-4): 22.7 µM (inactive) | GI50 (UACC-62): > 100 µM (inactive) | GI50 (HCT-15): 5.04 µM | GI50 (SF-295): 7.98 µM (inactive) | GI50 (CAKI-1): 5.19 µM (inactive) | GI50 (SF-539): 51.6 µM (inactive) | GI50 (HOP-92): 13.3 µM (inactive)

C\C(=N/N=C1/C(=C\N(C)C)C(=O)NC(=O)N1C)c1ccc(Cl)cc1
GI50 (HCC 2998): > 100 µM (inactive) | GI50 (SK-MEL-5): > 100 µM (inactive) | GI50 (UO-31): > 100 µM (inactive) | GI50 (K562): > 100 µM (inactive) | GI50 (IGROV-1): 53 µM (inactive) | GI50 (NCI-H460): > 100 µM (inactive) | GI50 (Hs-578T): > 100 µM (inactive) | GI50 (NCI-H522): 62.2 µM (inactive) | GI50 (RPMI-8226): 26.9 µM (inactive) | GI50 (NCI/ADR-RES): > 100 µM (inactive) | GI50 (KM12): 44.6 µM (inactive) | GI50 (SW-620): 89.7 µM (inactive) | GI50 (A498): > 100 µM (inactive) | GI50 (OVCAR-4): > 100 µM (inactive) | GI50 (UACC-62): > 100 µM (inactive) | GI50 (HCT-15): > 100 µM | GI50 (SF-295): 54.6 µM (inactive) | GI50 (CAKI-1): 76.4 µM (inactive) | GI50 (SF-539): > 100 µM (inactive) | GI50 (HOP-92): > 100 µM (inactive)

CC1=C(C)C(=O)C(C2=C(C3=CC(=O)C(C)=C(C)C3=O)C(=O)c3ccccc3C2=O)=CC1=O
GI50 (HCC 2998): 4.66 µM (inactive) | GI50 (SK-MEL-5): 4.53 µM (inactive) | GI50 (UO-31): 1.93 µM (inactive) | GI50 (K562): 2.77 µM (inactive) | GI50 (IGROV-1): 2.48 µM (inactive) | GI50 (NCI-H460): 14.2 µM (inactive) | GI50 (Hs-578T): 5.93 µM (inactive) | GI50 (NCI-H522): 1.88 µM (inactive) | GI50 (RPMI-8226): 1.3 µM (inactive) | GI50 (NCI/ADR-RES): 10.4 µM (inactive) | GI50 (KM12): 3.33 µM (inactive) | GI50 (SW-620): 1.82 µM (inactive) | GI50 (A498): 8.04 µM (inactive) | GI50 (OVCAR-4): 1.7 µM (inactive) | GI50 (UACC-62): 2.51 µM (inactive) | GI50 (HCT-15): 2.12 µM | GI50 (SF-295): 12.1 µM (inactive) | GI50 (CAKI-1): 2.25 µM (inactive) | GI50 (SF-539): 2.36 µM (inactive) | GI50 (HOP-92): 2.55 µM (inactive)

CN(C)/C=C/c1c2c(nc3ccccc13)C(=O)c1cccnc1C2=O
GI50 (HCC 2998): 1.28 µM (inactive) | GI50 (SK-MEL-5): 0.151 µM (active) | GI50 (UO-31): 0.557 µM (active) | GI50 (K562): 0.446 µM (active) | GI50 (IGROV-1): 1.42 µM (inactive) | GI50 (NCI-H460): 0.109 µM (active) | GI50 (Hs-578T): 1.58 µM (inactive) | GI50 (NCI-H522): 0.315 µM (active) | GI50 (RPMI-8226): 1.89 µM (inactive) | GI50 (NCI/ADR-RES): 0.321 µM (active) | GI50 (KM12): 0.35 µM (active) | GI50 (SW-620): 0.244 µM (active) | GI50 (A498): 0.865 µM (active) | GI50 (OVCAR-4): 0.351 µM (active) | GI50 (UACC-62): 0.541 µM (active) | GI50 (HCT-15): 0.0908 µM | GI50 (SF-295): 0.57 µM (active) | GI50 (CAKI-1): 1.46 µM (inactive) | GI50 (SF-539): 0.3 µM (active) | GI50 (HOP-92): 2.04 µM (inactive)
